The supplement of paper PMC10307832

Key:
Test in all cases: relative viability (nuclei count vs DMSO), 5 days (fraction); higher = more cells survive
NCI-H650 = system: NCI-H650
How it was run: (§1)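 Lung cancer cell lines in 1536-well plates were dosed by pin tool the day after seeding, either with one drug alone or with a fixed anchor-drug dose plus five library-drug doses (not always all listed) in √10 steps. After 5 days, cells were fixed and their nuclei stained in one step (final 0.05% Triton X-100, 1% formaldehyde, 1 ug/ml Hoechst), then counted on 4× images. Relative viability is the nuclei count in treated wells divided by that in vehicle wells. Values are medians of duplicate plates.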

HCC-44 = system: HCC-44
How it was run: as §1

SK-MES-1 = system: SK-MES-1
How it was run: as §1

A-427 = system: A-427
How it was run: as §1

NCI-H522 = system: NCI-H522
How it was run: as §1

NCI-H1666 = system: NCI-H1666
How it was run: as §1

NCI-H1975 = system: NCI-H1975
How it was run: as §1

COR-L23 = system: COR-L23
How it was run: as §1

HCC-827 = system: HCC-827
How it was run: as §1

HCC-15 = system: HCC-15
How it was run: as §1

NCI-H520 = system: NCI-H520
How it was run: as §1

NCI-H596 = system: NCI-H596
How it was run: as §1

NCI-H1437 = system: NCI-H1437
How it was run: as §1

NCI-H1792 = system: NCI-H1792
How it was run: as §1

COR-L 105 = system: COR-L 105
How it was run: as §1

NCI-H838 = system: NCI-H838
How it was run: as §1

LK-2 = system: LK-2
How it was run: as §1

NCI-H441 = system: NCI-H441
How it was run: as §1

LCLC-103H = system: LCLC-103H
How it was run: as §1

EKVX = system: EKVX
How it was run: as §1

201T = system: 201T
How it was run: as §1

SW 900 = system: SW 900
How it was run: as §1

HARA = system: HARA
How it was run: as §1

NCI-H23 = system: NCI-H23
How it was run: as §1

Molecule `Clc1ccc(Nc2nnc(Cc3ccncc3)c3ccccc23)cc1` [Vatalanib] + O=C(c1cc(Cc2n[nH]c(=O)c3ccccc23)ccc1F)N1CCN(C(=O)C2CC2)CC1 [Olaparib] (partner 8 µM) has a relative viability (NCI-H650; first compound 0.04 µM) of 0.377, a relative viability (NCI-H650; first compound 0.1265 µM) of 0.378 and a relative viability (NCI-H650; first compound 0.4 µM) of 0.414. It also gave a relative viability (NCI-H650; first compound 1.265 µM) of 0.394, a relative viability (NCI-H650; first compound 4 µM) of 0.361 and a relative viability (HCC-44; first compound 0.04 µM) of 1.05. For the same molecule, the relative viability (HCC-44; first compound 0.1265 µM) was 0.971, the relative viability (HCC-44; first compound 0.4 µM) was 0.978 and the relative viability (HCC-44; first compound 1.265 µM) was 0.998. For the same molecule, the relative viability (HCC-44; first compound 4 µM) was 0.996, the relative viability (SK-MES-1; first compound 0.04 µM) was 0.608 and the relative viability (SK-MES-1; first compound 0.1265 µM) was 0.71. The relative viability (SK-MES-1; first compound 0.4 µM) was 0.821, the relative viability (SK-MES-1; first compound 1.265 µM) was 0.61 and the relative viability (SK-MES-1; first compound 4 µM) was 0.627. The relative viability (A-427; first compound 0.04 µM) was 0.664, the relative viability (A-427; first compound 0.1265 µM) was 0.729 and the relative viability (A-427; first compound 0.4 µM) was 0.768. The relative viability (A-427; first compound 4 µM) was 0.666, the relative viability (NCI-H522; first compound 0.04 µM) was 0.756 and the relative viability (NCI-H522; first compound 0.1265 µM) was 0.705. It also gave a relative viability (NCI-H522; first compound 0.4 µM) of 0.746, a relative viability (NCI-H522; first compound 1.265 µM) of 0.565 and a relative viability (NCI-H522; first compound 4 µM) of 0.774. For the same molecule, the relative viability (NCI-H1666; first compound 0.04 µM) was 0.72, the relative viability (NCI-H1666; first compound 0.1265 µM) was 0.832 and the relative viability (NCI-H1666; first compound 0.4 µM) was 0.804. It also gave a relative viability (NCI-H1666; first compound 1.265 µM) of 0.798, a relative viability (NCI-H1666; first compound 4 µM) of 0.752 and a relative viability (NCI-H1975; first compound 0.04 µM) of 0.84. The relative viability (NCI-H1975; first compound 0.1265 µM) was 0.727, the relative viability (NCI-H1975; first compound 0.4 µM) was 0.729 and the relative viability (NCI-H1975; first compound 1.265 µM) was 0.709. It also gave a relative viability (NCI-H1975; first compound 4 µM) of 0.695, a relative viability (COR-L23; first compound 0.04 µM) of 0.363 and a relative viability (COR-L23; first compound 0.1265 µM) of 0.356. It also gave a relative viability (COR-L23; first compound 0.4 µM) of 0.402, a relative viability (COR-L23; first compound 1.265 µM) of 0.337 and a relative viability (COR-L23; first compound 4 µM) of 0.345. It also gave a relative viability (HCC-827; first compound 0.04 µM) of 0.56, a relative viability (HCC-827; first compound 0.1265 µM) of 0.655 and a relative viability (HCC-827; first compound 1.265 µM) of 0.534. The relative viability (HCC-827; first compound 4 µM) was 0.638, the relative viability (HCC-15; first compound 0.04 µM) was 0.795 and the relative viability (HCC-15; first compound 0.1265 µM) was 0.723. For the same molecule, the relative viability (HCC-15; first compound 0.4 µM) was 0.781, the relative viability (HCC-15; first compound 1.265 µM) was 0.684 and the relative viability (HCC-15; first compound 4 µM) was 0.696. The relative viability (NCI-H520; first compound 0.04 µM) was 0.392, the relative viability (NCI-H520; first compound 0.1265 µM) was 0.361 and the relative viability (NCI-H520; first compound 0.4 µM) was 0.37. The relative viability (NCI-H520; first compound 1.265 µM) was 0.283, the relative viability (NCI-H520; first compound 4 µM) was 0.34 and the relative viability (NCI-H596; first compound 0.04 µM) was 0.751. For the same molecule, the relative viability (NCI-H596; first compound 0.1265 µM) was 0.741, the relative viability (NCI-H596; first compound 0.4 µM) was 0.63 and the relative viability (NCI-H596; first compound 1.265 µM) was 0.652. It also gave a relative viability (NCI-H596; first compound 4 µM) of 0.765, a relative viability (NCI-H1437; first compound 0.04 µM) of 0.67 and a relative viability (NCI-H1437; first compound 0.1265 µM) of 0.625. For the same molecule, the relative viability (NCI-H1437; first compound 0.4 µM) was 0.679, the relative viability (NCI-H1437; first compound 1.265 µM) was 0.625 and the relative viability (NCI-H1437; first compound 4 µM) was 0.606. For the same molecule, the relative viability (NCI-H1792; first compound 0.04 µM) was 0.52, the relative viability (NCI-H1792; first compound 0.1265 µM) was 0.384 and the relative viability (NCI-H1792; first compound 0.4 µM) was 0.399. The relative viability (NCI-H1792; first compound 1.265 µM) was 0.344, the relative viability (NCI-H1792; first compound 4 µM) was 0.413 and the relative viability (COR-L 105; first compound 0.04 µM) was 0.719. It also gave a relative viability (COR-L 105; first compound 0.1265 µM) of 0.762, a relative viability (COR-L 105; first compound 0.4 µM) of 0.738 and a relative viability (COR-L 105; first compound 1.265 µM) of 0.645. For the same molecule, the relative viability (COR-L 105; first compound 4 µM) was 0.703, the relative viability (NCI-H838; first compound 0.04 µM) was 0.774 and the relative viability (NCI-H838; first compound 0.1265 µM) was 0.741. It also gave a relative viability (NCI-H838; first compound 0.4 µM) of 0.824, a relative viability (NCI-H838; first compound 1.265 µM) of 0.722 and a relative viability (NCI-H838; first compound 4 µM) of 0.702. For the same molecule, the relative viability (LK-2; first compound 0.04 µM) was 0.723, the relative viability (LK-2; first compound 0.1265 µM) was 0.72 and the relative viability (LK-2; first compound 0.4 µM) was 0.792. For the same molecule, the relative viability (LK-2; first compound 1.265 µM) was 0.702, the relative viability (LK-2; first compound 4 µM) was 0.816 and the relative viability (NCI-H441; first compound 0.04 µM) was 0.546. It also gave a relative viability (NCI-H441; first compound 0.1265 µM) of 0.62, a relative viability (NCI-H441; first compound 0.4 µM) of 0.51 and a relative viability (NCI-H441; first compound 1.265 µM) of 0.561. For the same molecule, the relative viability (NCI-H441; first compound 4 µM) was 0.553, the relative viability (LCLC-103H; first compound 0.04 µM) was 0.746 and the relative viability (LCLC-103H; first compound 0.1265 µM) was 0.706. It also gave a relative viability (LCLC-103H; first compound 0.4 µM) of 0.749, a relative viability (LCLC-103H; first compound 1.265 µM) of 0.746 and a relative viability (LCLC-103H; first compound 4 µM) of 0.764. For the same molecule, the relative viability (EKVX; first compound 0.04 µM) was 0.955, the relative viability (EKVX; first compound 0.1265 µM) was 0.885 and the relative viability (EKVX; first compound 0.4 µM) was 0.851. For the same molecule, the relative viability (EKVX; first compound 1.265 µM) was 0.66, the relative viability (EKVX; first compound 4 µM) was 0.756 and the relative viability (201T; first compound 0.04 µM) was 0.833. The relative viability (201T; first compound 0.1265 µM) was 0.83, the relative viability (201T; first compound 0.4 µM) was 0.904 and the relative viability (201T; first compound 1.265 µM) was 0.842. The relative viability (201T; first compound 4 µM) was 0.83, the relative viability (SW 900; first compound 0.04 µM) was 0.759 and the relative viability (SW 900; first compound 0.1265 µM) was 0.674. For the same molecule, the relative viability (SW 900; first compound 0.4 µM) was 0.997, the relative viability (SW 900; first compound 1.265 µM) was 0.853 and the relative viability (SW 900; first compound 4 µM) was 0.93. The relative viability (HARA; first compound 0.04 µM) was 0.713, the relative viability (HARA; first compound 0.1265 µM) was 0.725 and the relative viability (HARA; first compound 0.4 µM) was 0.875. For the same molecule, the relative viability (HARA; first compound 1.265 µM) was 0.97, the relative viability (HARA; first compound 4 µM) was 0.823 and the relative viability (NCI-H23; first compound 0.04 µM) was 0.306. For the same molecule, the relative viability (NCI-H23; first compound 0.1265 µM) was 0.161, the relative viability (NCI-H23; first compound 0.4 µM) was 0.326 and the relative viability (NCI-H23; first compound 1.265 µM) was 0.305. The relative viability (NCI-H23; first compound 4 µM) was 0.28.
